Each structure is given as a SMILES string. Calls of active or inactive are those of the source. No cut-off for these calls is given here. Bounds are passed on as bounds.

The target of data set [1] is Neuronal acetylcholine receptor subunit alpha-7 (Rattus norvegicus, UniProt Q05941). Briefly: Agonist activity at rat alpha7 nAChR expressed in HEK293 cells assessed as increase in Ca2+ flux by Fluo-4 AM dye based FLIPR assay. Type of data set: cell-based. On the technique in general: A change in cytosolic calcium serves as a functional read-out for many receptors and channels.

Data set [2] in a line: Drug level treated with (2R)-N-(6-(1H-Imidazol-1-yl)-4-pyrimidinyl)-4'H-spiro[4-azabicyclo[2.2.2]octane-2,5'-[1,3]oxazol]-2'-amine.
The species entered for data set [3] is Canis familiaris. Briefly: Hepatotoxicity in dog assessed as increase in ALT level. The following applies: in vivo. The format is toxicity, Canis lupus familiaris.
The species named for data set [4] is Canis familiaris. Description: Hepatotoxicity in dog assessed as increase in AST level. Type of data set: toxicity, Canis lupus familiaris. The following applies: in vivo.
Data set [5] has as its target T1, Neuronal acetylcholine receptor subunit alpha-7 (Homo sapiens, UniProt P36544). Briefly: Displacement of [125I]alpha-bungarotoxin from human alpha7 nAChR expressed in HEK293 cell membranes incubated for 2 hrs and measured by gamma counting method. (Displacement assays read how much labelled ligand stays bound in the presence of the test substance.)
Data set [6] deals with T1, Neuronal acetylcholine receptor subunit alpha-7. Description: Agonist activity at human alpha7 nAChR expressed in HEK293 cells co-expressing human RIC3 assessed as induction of peak current amplitutde at 10 uM at holding potential of -90 mV by whole-cell voltage clamp electrophysiology method relative to acetylcholine. Type of data set: cell-based.
For data set [7] the target is unchanged. Briefly: Agonist activity at human alpha7 nAChR expressed in HEK293 cells co-expressing human RIC3 assessed as area under current curve at 10 uM at holding potential of -90 mV by whole-cell voltage clamp electrophysiology method relative to acetylcholine. Type of data set: cell-based.
For data set [8] the target is unchanged. Description: Agonist activity at human alpha7 nAChR expressed in HEK293 cells co-expressing human RIC3 assessed as area under current curve at holding potential of -90 mV by whole-cell voltage clamp electrophysiology method. The format is cell-based.
Data set [9] has as its target Nicotinic acetylcholine receptor alpha-1/beta-1/delta/epsilon (Rattus norvegicus) (UniProt P25109+P25108+P25110+P09660). Briefly: Antagonist activity at rat alpha1beta1delta1epsilon nAChR expressed in HEK293 cells assessed as inhibition of acetylcholine-induced increase in Ca2+ flux by Fluo-4 AM dye based FLIPR assay. The format is cell-based.
The nature of data set [10]: Metabolic stability in human liver microsomes assessed as compound remaining at 3 uM after 10 mins by LC-MS/MS analysis. The following applies: read-out: Stability. The format is ADME, microsome. (In general: Liver microsomes are vesicles of endoplasmic reticulum, rich in cytochrome P450 enzymes.)
A short description of data set [11]: Metabolic stability in rat liver microsomes assessed as compound remaining at 3 uM after 10 mins by LC-MS/MS analysis. The format is ADME, microsome. The following applies: read-out: Stability.
Data set [12] in a line: Metabolic stability in dog liver microsomes assessed as compound remaining at 3 uM after 10 mins by LC-MS/MS analysis. The format is ADME, Canis lupus familiaris, microsome. The following applies: read-out: Stability.
Data set [13] can be described thus: Metabolic stability in monkey liver microsomes assessed as compound remaining at 3 uM after 10 mins by LC-MS/MS analysis. The following applies: rhesus monkey, read-out: Stability. The format is ADME, Macaca mulatta, microsome.
The target of data set [14] is T2, CYP3A4 (Homo sapiens, UniProt P08684). Briefly: Inhibition of recombinant human CYP3A4 using fluorogenic substrate BFC preincubated for 30 mins and measured after 20 to 60 mins in presence of NADPH regenerating system by fluorescence assay. Type of data set: ADME. To be noted: human, recombinant CYP3A4, probe BFC.
The target in data set [15] is T2, CYP3A4. Briefly: Inhibition of recombinant human CYP3A4 using fluorogenic substrate BZR preincubated for 30 mins and measured after 20 to 60 mins in presence of NADPH regenerating system by fluorescence assay. Type of data set: ADME. To be noted: human, recombinant CYP3A4, probe BZR.
The target in the next data set is CYP1A2 (Homo sapiens, UniProt P05177). Description: Inhibition of recombinant human CYP1A2 using fluorogenic substrate preincubated for 30 mins and measured after 20 to 60 mins in presence of NADPH regenerating system by fluorescence assay. The format is ADME. To be noted: recombinant CYP1A2, probe fluorogenic substrate (not named).
Another data set has as its target CYP2B6 (Homo sapiens, UniProt P20813). Briefly: Inhibition of recombinant human CYP2B6 using fluorogenic substrate preincubated for 30 mins and measured after 20 to 60 mins in presence of NADPH regenerating system by fluorescence assay. The format is ADME. The following applies: human, recombinant CYP2B6, probe fluorogenic substrate (not named).
Another data set concerns the target CYP2C8 (Homo sapiens, UniProt P10632). Description: Inhibition of recombinant human CYP2C8 using fluorogenic substrate preincubated for 30 mins and measured after 20 to 60 mins in presence of NADPH regenerating system by fluorescence assay. The format is ADME. The following applies: human, recombinant CYP2C8, probe fluorogenic substrate (not named).
In another data set the target is CYP2C9 (Homo sapiens, UniProt P11712). Description: Inhibition of recombinant human CYP2C9 using fluorogenic substrate preincubated for 30 mins and measured after 20 to 60 mins in presence of NADPH regenerating system by fluorescence assay. The format is ADME. The following applies: recombinant CYP2C9, probe fluorogenic substrate (not named).
The target in a further data set is CYP2C19 (Homo sapiens, UniProt P33261). Description: Inhibition of recombinant human CYP2C19 using fluorogenic substrate preincubated for 30 mins and measured after 20 to 60 mins in presence of NADPH regenerating system by fluorescence assay. Type of data set: ADME. To be noted: recombinant CYP2C19, probe fluorogenic substrate (not named).
The target in another data set is CYP2D6 (Homo sapiens, UniProt P10635). Description: Inhibition of recombinant human CYP2D6 using fluorogenic substrate preincubated for 30 mins and measured after 20 to 60 mins in presence of NADPH regenerating system by fluorescence assay. The format is ADME. To be noted: human, recombinant CYP2D6, probe fluorogenic substrate (not named).
Data set [16] can be described thus: Fraction unbound in human plasma at 10 uM after 4 hrs by equilibrium dialysis method. The format is ADME, cell-free.
Data set [17] in a line: Fraction unbound in rat plasma at 10 uM after 4 hrs by equilibrium dialysis method. Type of data set: ADME, cell-free.
Data set [18] is described as follows: Fraction unbound in mouse plasma at 10 uM after 4 hrs by equilibrium dialysis method. The format is ADME, cell-free.
Data set [19] is described as follows: Fraction unbound in dog plasma at 10 uM after 4 hrs by equilibrium dialysis method. The format is ADME, cell-free, Canis lupus familiaris.
Data set [20] in a line: Fraction unbound in monkey plasma at 10 uM after 4 hrs by equilibrium dialysis method. The format is ADME, cell-free, Macaca mulatta. The following applies: rhesus monkey.
Data set [21] is filed under the species Canis familiaris. Description: Hepatotoxicity in dog assessed as increase in alkaline phosphatase level. Type of data set: toxicity, Canis lupus familiaris. The following applies: in vivo.
The species named for data set [22] is Canis familiaris. Briefly: Cardiotoxicity in dog assessed as QT prolongation. Type of data set: toxicity, Canis lupus familiaris.
The target in data set [23] is Neuronal acetylcholine receptor; alpha3/beta4 (Rattus norvegicus) (UniProt P04757+P12392). Description: Antagonist activity at rat alpha3beta4 nAChR expressed in HEK293 cells assessed as inhibition of acetylcholine-induced increase in Ca2+ flux by Fluo-4 AM dye based FLIPR assay. The format is cell-based.
In data set [24] the target is Neuronal acetylcholine receptor; alpha4/beta2 (Rattus norvegicus) (UniProt P09483+P12390). Briefly: Antagonist activity at rat alpha4beta2 nAChR expressed in HEK293 cells assessed as inhibition of acetylcholine-induced increase in Ca2+ flux by Fluo-4 AM dye based FLIPR assay. The format is cell-based.
Data set [25] is described as follows: Metabolic stability in mouse liver microsomes assessed as compound remaining at 3 uM after 10 mins by LC-MS/MS analysis. The format is ADME, microsome. The following applies: read-out: Stability.
Data set [26] is filed under the species Canis familiaris. Description: […] in dog assessed as increase in AST level. Type of data set: toxicity, Canis lupus familiaris. The following applies: in vivo.
The species entered for data set [27] is Canis familiaris. Description: […] in dog assessed as increase in ALT level. The following applies: in vivo. The format is toxicity, Canis lupus familiaris.
For data set [28], the species on record is Canis familiaris. Description: […] in dog assessed as increase in alkaline phosphatase level. To be noted: in vivo. The format is toxicity, Canis lupus familiaris.

T1 sequence (P36544 whole entry): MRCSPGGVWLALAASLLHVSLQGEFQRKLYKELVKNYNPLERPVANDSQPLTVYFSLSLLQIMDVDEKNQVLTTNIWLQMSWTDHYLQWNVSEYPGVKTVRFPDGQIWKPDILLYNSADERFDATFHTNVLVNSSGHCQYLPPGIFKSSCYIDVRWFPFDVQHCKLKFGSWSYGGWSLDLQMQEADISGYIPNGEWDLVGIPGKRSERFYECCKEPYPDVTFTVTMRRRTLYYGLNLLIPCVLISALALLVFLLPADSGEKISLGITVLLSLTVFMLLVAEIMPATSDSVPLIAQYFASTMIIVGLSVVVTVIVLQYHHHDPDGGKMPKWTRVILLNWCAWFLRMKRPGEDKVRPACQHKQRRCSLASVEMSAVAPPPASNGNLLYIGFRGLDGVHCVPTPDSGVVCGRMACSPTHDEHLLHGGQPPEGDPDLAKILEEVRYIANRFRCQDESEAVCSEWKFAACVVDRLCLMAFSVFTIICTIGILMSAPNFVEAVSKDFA
T2 sequence (P08684 whole entry): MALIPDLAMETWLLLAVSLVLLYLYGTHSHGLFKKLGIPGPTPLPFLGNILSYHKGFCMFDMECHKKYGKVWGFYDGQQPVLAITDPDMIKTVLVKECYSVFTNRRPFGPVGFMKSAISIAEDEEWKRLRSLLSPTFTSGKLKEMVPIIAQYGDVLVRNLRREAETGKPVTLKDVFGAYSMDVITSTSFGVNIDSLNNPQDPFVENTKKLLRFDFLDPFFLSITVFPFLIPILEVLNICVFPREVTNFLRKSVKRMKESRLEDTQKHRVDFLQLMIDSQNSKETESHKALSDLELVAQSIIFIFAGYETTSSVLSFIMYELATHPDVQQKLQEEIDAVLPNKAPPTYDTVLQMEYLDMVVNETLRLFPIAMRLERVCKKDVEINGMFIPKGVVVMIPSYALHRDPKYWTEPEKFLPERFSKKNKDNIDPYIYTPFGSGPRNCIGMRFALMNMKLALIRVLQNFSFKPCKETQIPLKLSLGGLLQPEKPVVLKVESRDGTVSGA
Neuronal acetylcholine receptor subunit alpha-7 (Rattus norvegicus, UniProt Q05941), sequence (Q05941 whole entry): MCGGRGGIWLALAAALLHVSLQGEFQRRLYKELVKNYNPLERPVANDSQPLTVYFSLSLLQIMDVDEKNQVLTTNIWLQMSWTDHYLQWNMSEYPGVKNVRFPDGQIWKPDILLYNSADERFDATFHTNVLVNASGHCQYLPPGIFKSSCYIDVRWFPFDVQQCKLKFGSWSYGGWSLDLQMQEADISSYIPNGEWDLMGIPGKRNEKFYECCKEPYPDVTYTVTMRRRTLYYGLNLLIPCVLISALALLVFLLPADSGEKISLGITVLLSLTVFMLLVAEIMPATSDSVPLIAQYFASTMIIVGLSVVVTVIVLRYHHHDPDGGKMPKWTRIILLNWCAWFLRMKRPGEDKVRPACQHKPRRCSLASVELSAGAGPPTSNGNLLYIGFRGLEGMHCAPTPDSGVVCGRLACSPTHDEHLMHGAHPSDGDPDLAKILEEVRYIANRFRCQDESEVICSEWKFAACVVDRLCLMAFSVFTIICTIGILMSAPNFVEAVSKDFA
CYP2C8, sequence (P10632 whole entry): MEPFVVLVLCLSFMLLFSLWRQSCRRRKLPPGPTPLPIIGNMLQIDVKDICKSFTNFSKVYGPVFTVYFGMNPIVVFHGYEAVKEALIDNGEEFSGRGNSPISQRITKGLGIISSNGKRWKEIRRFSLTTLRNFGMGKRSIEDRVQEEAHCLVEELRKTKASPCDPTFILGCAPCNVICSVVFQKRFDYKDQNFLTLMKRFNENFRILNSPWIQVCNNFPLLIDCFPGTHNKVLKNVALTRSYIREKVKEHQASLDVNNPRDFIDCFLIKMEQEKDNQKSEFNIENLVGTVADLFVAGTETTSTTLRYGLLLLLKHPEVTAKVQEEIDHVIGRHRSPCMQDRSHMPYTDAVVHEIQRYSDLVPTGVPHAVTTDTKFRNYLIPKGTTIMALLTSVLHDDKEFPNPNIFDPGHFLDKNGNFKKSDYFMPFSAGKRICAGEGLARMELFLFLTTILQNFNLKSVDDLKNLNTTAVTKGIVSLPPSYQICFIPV
CYP1A2, sequence (P05177 whole entry): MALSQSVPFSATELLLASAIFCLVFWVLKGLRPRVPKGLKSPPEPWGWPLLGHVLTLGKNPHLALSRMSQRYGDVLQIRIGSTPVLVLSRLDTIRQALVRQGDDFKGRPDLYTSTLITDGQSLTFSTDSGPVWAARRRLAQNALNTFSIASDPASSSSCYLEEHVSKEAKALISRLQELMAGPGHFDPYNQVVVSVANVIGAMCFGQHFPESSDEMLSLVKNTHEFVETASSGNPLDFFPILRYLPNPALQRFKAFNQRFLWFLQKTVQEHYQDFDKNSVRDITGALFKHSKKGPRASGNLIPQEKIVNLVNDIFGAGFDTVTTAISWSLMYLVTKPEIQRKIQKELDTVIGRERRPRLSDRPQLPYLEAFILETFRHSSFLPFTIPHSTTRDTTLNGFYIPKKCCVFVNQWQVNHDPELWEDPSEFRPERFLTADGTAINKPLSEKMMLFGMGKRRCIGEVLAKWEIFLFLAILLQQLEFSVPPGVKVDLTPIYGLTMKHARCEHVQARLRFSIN
CYP2C19, sequence (P33261 whole entry): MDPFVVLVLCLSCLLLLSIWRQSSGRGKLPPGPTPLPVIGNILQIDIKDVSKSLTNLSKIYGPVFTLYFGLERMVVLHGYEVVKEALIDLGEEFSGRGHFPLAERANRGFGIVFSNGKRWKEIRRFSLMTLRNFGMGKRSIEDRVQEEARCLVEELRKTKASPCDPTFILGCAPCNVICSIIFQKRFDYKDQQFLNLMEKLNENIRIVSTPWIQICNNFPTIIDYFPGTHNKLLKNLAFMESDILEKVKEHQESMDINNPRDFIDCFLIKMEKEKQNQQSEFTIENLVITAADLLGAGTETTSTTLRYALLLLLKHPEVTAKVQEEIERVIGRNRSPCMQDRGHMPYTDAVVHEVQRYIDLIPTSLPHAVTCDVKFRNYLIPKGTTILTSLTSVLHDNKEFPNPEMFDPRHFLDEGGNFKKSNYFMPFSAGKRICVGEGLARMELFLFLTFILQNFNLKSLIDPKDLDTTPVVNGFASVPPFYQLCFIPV
CYP2D6, sequence (P10635 whole entry): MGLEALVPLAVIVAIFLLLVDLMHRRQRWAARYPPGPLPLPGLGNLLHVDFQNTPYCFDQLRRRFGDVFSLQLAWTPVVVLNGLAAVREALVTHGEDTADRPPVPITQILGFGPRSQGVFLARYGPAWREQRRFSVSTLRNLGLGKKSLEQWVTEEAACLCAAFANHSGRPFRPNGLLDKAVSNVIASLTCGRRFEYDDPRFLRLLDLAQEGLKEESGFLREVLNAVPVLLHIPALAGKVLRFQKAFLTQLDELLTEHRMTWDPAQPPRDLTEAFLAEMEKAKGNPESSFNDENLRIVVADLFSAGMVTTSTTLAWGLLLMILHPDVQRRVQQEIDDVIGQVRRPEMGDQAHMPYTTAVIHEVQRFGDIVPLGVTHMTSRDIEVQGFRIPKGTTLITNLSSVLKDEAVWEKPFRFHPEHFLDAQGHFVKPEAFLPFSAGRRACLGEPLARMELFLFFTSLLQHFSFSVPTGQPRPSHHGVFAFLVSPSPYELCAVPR
CYP2C9, sequence (P11712 whole entry): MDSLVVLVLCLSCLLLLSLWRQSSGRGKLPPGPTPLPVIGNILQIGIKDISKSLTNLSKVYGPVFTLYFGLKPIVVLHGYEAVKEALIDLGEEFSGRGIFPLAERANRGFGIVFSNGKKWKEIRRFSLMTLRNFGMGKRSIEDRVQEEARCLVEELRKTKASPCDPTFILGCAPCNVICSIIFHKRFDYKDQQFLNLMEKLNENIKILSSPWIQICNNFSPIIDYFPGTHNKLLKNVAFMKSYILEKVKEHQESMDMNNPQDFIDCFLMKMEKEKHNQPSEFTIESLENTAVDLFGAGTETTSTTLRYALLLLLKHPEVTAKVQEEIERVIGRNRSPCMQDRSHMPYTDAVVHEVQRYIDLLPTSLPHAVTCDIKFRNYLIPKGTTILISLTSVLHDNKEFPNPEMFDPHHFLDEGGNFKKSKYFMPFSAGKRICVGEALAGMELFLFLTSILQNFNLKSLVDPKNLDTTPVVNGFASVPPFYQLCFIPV
CYP2B6, sequence (P20813 whole entry): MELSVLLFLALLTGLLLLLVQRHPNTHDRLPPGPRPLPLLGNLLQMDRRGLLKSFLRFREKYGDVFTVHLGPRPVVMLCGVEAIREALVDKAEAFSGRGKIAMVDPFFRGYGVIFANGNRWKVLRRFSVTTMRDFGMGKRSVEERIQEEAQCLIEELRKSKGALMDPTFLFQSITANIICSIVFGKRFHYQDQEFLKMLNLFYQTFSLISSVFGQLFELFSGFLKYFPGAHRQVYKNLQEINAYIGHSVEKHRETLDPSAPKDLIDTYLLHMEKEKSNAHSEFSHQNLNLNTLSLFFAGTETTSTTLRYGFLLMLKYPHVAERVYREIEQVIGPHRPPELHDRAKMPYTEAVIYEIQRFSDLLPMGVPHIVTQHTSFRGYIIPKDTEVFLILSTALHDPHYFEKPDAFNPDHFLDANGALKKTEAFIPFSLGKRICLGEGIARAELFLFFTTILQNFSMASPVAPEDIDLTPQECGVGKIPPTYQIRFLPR

`[O-][N+]12CCC(CC1)C1(CN=C(Nc3cc(-n4ccnc4)ncn3)O1)C2` (single isomer, unassigned): the concentration giving a half-maximal response (EC50) in data set [1] is more than 50 µM. The Drug metabolism entry in [2] is recorded as “Metabolite detected”.
Turning to `c1ccc2cc(NC3=NC[C@@]4(CN5CCC4CC5)O3)ncc2c1`, the Activity entry in the data set filed under Canis familiaris [3], in the data set filed under Canis familiaris [4], in the data set filed under Canis familiaris [21], in the data set listed under Canis familiaris [22], in the data set filed under Canis familiaris [26] and in the data set listed under Canis familiaris [27] was “Toxic” throughout. Also, the Activity entry in the data set listed under Canis familiaris [28] is “Toxic”. Moreover, the Ki in data set [5] amounted to 0.0013 µM. Besides, the %max was found to be 26% in [6] and 62% in [7]. Further, in [8], the 50% effective concentration (EC50) was determined as 0.24 µM. The inhibition result in [9], in data set [23] and in data set [24] was “inactive” in each case. Also, the remaining at 10 min, 3 µM is 96% in data set [10]; 1% in data set [11]; 74% in data set [12]; 78% in data set [13]; 89% in [25]. In addition, the IC50 at CYP3A4 [14], on CYP3A4 [15], on CYP1A2, on CYP2B6, on CYP2C8 and at CYP2C9 was more than 40 µM throughout. The concentration for half-maximal inhibition (IC50) at CYP2C19 and on CYP2D6 was more than 40 µM each time. For the same compound, the free fraction (fraction unbound) at 4 h, 10 µM in [16] worked out at 0.25; in data set [17], 0.27; in data set [18] it was 0.23; in [19], 0.44; in [20], 0.35.

Usually EC50 stands for the concentration needed to bring the measured effect to its halfway point. By Ki is commonly meant the equilibrium dissociation constant of an inhibitor or competing ligand from its target. The IC50 is the midpoint of a concentration-inhibition curve. What is called fraction unbound is free concentration divided by total concentration.

(Values after ChEMBL document CHEMBL4002647, “BMS-933043, a Selective α7 nAChR Partial Agonist for the Treatment of Cognitive Deficits Associated with Schizophrenia” (ACS Med Chem Lett, 2017).)
